# How the values were obtained:
# [1] = tested on: HNE cells; experiment: IL-4 and IL-13-induced goblet cell hyperplasia in HNE cells, PAS staining; type: cell-based, human; details: pretreatment
# Method: (A) The MUC5AC mRNA expression level was determined at the indicated time after treatment of F56 ([…]) in IL-4 (10 ng/ml)-treated HNE cells (mean±S.E., n=4). (B) Periodic acid-Schiff (PAS) staining showing goblet cell hyperplasia of IL-4 and IL-13 (10 ng/ml)-treated HNE cells in presence or absence of F56 ([…]) at Day 7. (C) Measurement of the total volume of ASL and fluid meniscus in HNE cells expressing wild-type (wt) or mutant (mt) PDS. The HNE cells were treated with IL-4 (10 ng/ml, 48 hours) in presence or absence of […]. (D) Representative image of a transwell insert having normal HNE cells. Arrows indicate the fluid meniscus of HNE cells treated with IL-4 (10 ng/ml, 48 hours) in presence or absence of […] F56. (E) Representative protein expression result of pendrin in IL-4 and IL-13-treated HNE cells. (F) Measurement of the total volume of ASL and fluid meniscus. The HNE cells were treated with IL-13 (10 ng/ml, 48 hours) in presence or absence of 30 mM F56 (mean±S.E., n=3-4). * P<0.05, *** P<0.001. Size bar, 30 μm.
# For evaluation of airway inflammation, left lung was fixed in 4% paraformaldehyde overnight and embedded in paraffin. […] The inflammation score showing the severity of bronchial inflammation was evaluated by 3 blind observers using a method reported conventionally. […]
# [2] = tested on: pendrin; experiment: Protein expression measurement in IL-4-treated HNE cells, pendrin; type: cell-based, human; details: long-term treatment
# Method: CHO-K1 and HNE cells were lysed with a cytolytic buffer (50 mM Tris-HCl, pH 7.4, 1% Nonidet P-40, 0.25% sodium deoxycholate, 150 mM NaCl, 1 mM EDTA, 1 mM Na3VO4, and protease inhibiting mixture). The total cell lysates were under centrifugation at 15,000×g for 10 minutes at 4° C. to remove cellular debris and the same amount (50 μg protein or 5 μg protein/lane) of supernatant protein was isolated on 4-12% Tris-glycine precast gel (KOMA BIOTECH, Seoul, Korea) and transferred to PVDF membrane (Millipore, Billerica, MA, USA). The membrane was blocked with 5% fat-free skim milk in TBS containing 0.1% Tween 20 (TBST) or 5% bovine serum albumin in TBS at a room temperature for 1 hour. Then, the membrane was cultured at 4° C. overnight with a primary antibody against pendrin (sc-50346; Santa Cruz Biotechnology, Santa Cruz, CA, USA), NF-κB p65 (4764S; Cell Signaling Technology, Danvers, MA, USA), p-NF-κB p65 (3033S; Cell Signaling Technology), IkBα (9242S; Cell Signaling Technology), p-IkBα (9141S; Cell Signaling Technology), β-actin (sc-47778; Santa Cruz Biotechnology), or AN01 (ab64085; Abeam). After washing with 0.05% Tween 20 (TBST) in PBS, the blot was additionally cultured with a secondary antibody (Cell Signaling Technology, Danvers, MA) at a room temperature for 60 minutes. […]
# [3] = Stability statements
# [4] = target: T1, SLC26A9 (Homo sapiens, UniProt Q7LBE3); experiment: Cl^−/HCO3^− exchange in CHO-K1 cells expressing SLC26A9; type: cell-based
# T1 construct: expressed in transfected cells; host or cells: CHO-K1
# Method: (A) The inhibition of mouse pendrin (mPDS)-mediated Cl^−/I^− exchange activity by F56 was measured in CHO-K1 cells (mean±S.E., n=5). The indicated concentration of F56 was pretreated for 10 minutes. (B) Summary of dose-response for inhibition of the human pendrin (hPDS)-mediated (closed circle, FIG. (a), C) and mPDS-mediated (open circle) Cl^−/I^− exchange activity. (C-F) Representative traces of intracellular pH in CHO-K1 cells expressing SLC26A3, SLC26A6, SLC26A7 and SLC26A9 were shown. The application of Cl^− free solution induced intracellular alkalization by Cl^−/HCO3^− exchange. The indicated concentration of F56 was pretreated for 10 minutes. (G) the effect of F56 (100 μM) on the CFTR chloride channel activity was measured in FRT cells expressing human CFTR. The CFTR current was activated by 20 μM forskolin and was inhibited by 10 μM CFTRinh-172. (H) The effect of F56 (100 μM) on the AN01 chloride channel activity was measured in FRT cells expressing human AN01. Before 10 minutes prior to AN01 activation by 100 μM ATP, F56 was added. (Right) Peak current summary (mean±S.E., n=3). (I) The effect of F56 on the hERG (Kv11.1) potassium channel activity was measured in HEK293T cells expressing human Kv11.1 (mean±S.E., n=4). […] (J) The effect of F56 on the 5-HT2A channel activity was measured in FRT cells expressing human 5-HT2A (mean±S.E., n=4). […]
# T1 sequence (Q7LBE3 whole entry, species assumed): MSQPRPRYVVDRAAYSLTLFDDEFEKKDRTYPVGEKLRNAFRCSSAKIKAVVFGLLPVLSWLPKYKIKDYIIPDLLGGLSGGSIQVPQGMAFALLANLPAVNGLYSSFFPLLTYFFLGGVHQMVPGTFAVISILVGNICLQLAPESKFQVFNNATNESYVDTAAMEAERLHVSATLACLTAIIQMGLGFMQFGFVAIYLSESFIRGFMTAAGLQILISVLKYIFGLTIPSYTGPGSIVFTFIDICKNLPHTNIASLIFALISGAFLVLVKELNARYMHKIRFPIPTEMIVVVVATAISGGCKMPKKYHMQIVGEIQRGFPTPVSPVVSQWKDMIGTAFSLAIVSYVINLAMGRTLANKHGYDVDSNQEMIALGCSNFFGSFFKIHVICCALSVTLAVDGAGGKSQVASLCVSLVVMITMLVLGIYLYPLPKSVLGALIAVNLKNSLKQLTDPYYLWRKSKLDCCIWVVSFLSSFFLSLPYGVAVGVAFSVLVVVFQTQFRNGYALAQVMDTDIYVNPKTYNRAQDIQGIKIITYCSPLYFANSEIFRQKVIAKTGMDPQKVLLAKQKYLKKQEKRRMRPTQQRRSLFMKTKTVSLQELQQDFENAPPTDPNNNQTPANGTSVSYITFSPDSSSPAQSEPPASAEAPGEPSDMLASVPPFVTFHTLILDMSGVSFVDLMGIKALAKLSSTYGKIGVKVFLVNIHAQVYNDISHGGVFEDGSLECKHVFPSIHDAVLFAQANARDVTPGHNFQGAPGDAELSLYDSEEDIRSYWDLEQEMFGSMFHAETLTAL
structure (smiles),measurement,setting,value
"CC(C)(C)c1ccc(C2=NC(=Cc3cccs3)C(=O)O2)cc1 [F56, 2-(4-(tert-butyl)phenyl)-4-(thiophen-2-ylmethylene)oxazol-5(4H)-one]",IL-4 and IL-13-induced goblet cell hyperplasia,[1],significantly reduced
same,pendrin protein expression level,[2],strongly reduced
same,chemical stability,[3],chemically stable
same,effect on SLC26A9 Cl^−/HCO3^− exchange,[4],did not affect
